Measured values reported in ChEMBL document CHEMBL1139128, “Structure-activity relationship analysis of a novel necroptosis inhibitor, Necrostatin-5” (Bioorg Med Chem Lett, 2007).
pEC50: −log10 of the molar value. Activity calls are given as the source filed them. The rule behind the calls is not given here.

System: Jurkat
Experiment: Inhibition of TNF-alpha-induced necroptosis in FADD-deficient Jurkat T cells
Type: functional, cell-based
Design: concentration or dose not given beside the values
Conditions: for pEC50: Jurkat

## COc1ccc(-n2c(SC)nc3sc4c(c3c2=O)CCCC4)c(OC)c1
Homo sapiens
  Activity: inactive

## CSc1nc2sc3c(c2c(=O)n1-c1ccc(OC(F)(F)F)cc1)CCC3
Homo sapiens
  Activity: inactive

## N#CCSc1nc2sccc2c(=O)n1-c1ccccc1
Homo sapiens
  Activity: inactive

## COc1ccc(-n2c(SCC#N)nc3sc4c(c3c2=O)CCCC4)cc1
  Activity: 100%
Homo sapiens
  pEC50: 6.62

## N#CCSc1nc2sc3ccccc3c2c(=O)n1-c1ccc2c(c1)OCO2
  Activity: 100%
Homo sapiens
  pEC50: 6.57

## CCCCCCCCCCCCCCc1sc2nc(SC)n(-c3ccc(OC)cc3)c(=O)c2c1C
Homo sapiens
  Activity: inactive

## CSc1nc2sc3c(c2c(=O)n1-c1ccc(OCc2ccccc2)cc1)CCCC3
Homo sapiens
  Activity: inactive

## CCCSc1nc2sc3c(c2c(=O)n1-c1ccc(OC)cc1)CCCC3
Homo sapiens
  Activity: inactive

## Cc1ccc(-n2c(SCC#N)nc3sc4c(c3c2=O)CCCC4)cc1
  Activity: 48.6%
Homo sapiens
  pEC50: 5.74

## COc1ccc(-n2c(SC)nc3sc4c(c3c2=O)CCCCC4)cc1
Homo sapiens
  Activity: inactive

## CSc1nc2sc3c(c2c(=O)n1-c1ccc(Br)cc1)CCCC3
Homo sapiens
  Activity: inactive

## COc1ccc(-n2c(SCc3ccccc3)nc3sc4c(c3c2=O)CCC4)cc1
Homo sapiens
  Activity: inactive

## COC(=O)CSc1nc2sc3c(c2c(=O)n1-c1ccc(OC)cc1)CCCC3
Homo sapiens
  Activity: inactive

## N#CCSc1nc2sc3c(c2c(=O)n1-c1ccc2c(c1)OCO2)CCCC3
  Activity: 100%
Homo sapiens
  pEC50: 6.05

## CCCCSc1nc2sc3c(c2c(=O)n1-c1ccc(OC)cc1)CCC3
Homo sapiens
  Activity: inactive

## COc1ccc(-n2c(SC)nc3sc(C(C)C)c(C)c3c2=O)cc1
Homo sapiens
  Activity: inactive

## CCCCCSc1nc2sc3c(c2c(=O)n1-c1ccc(OC)cc1)CCC3
Homo sapiens
  Activity: inactive

## CCN1CCc2sc3nc(SC)n(-c4ccccc4)c(=O)c3c2C1
Homo sapiens
  Activity: inactive

## COc1ccc(-n2c(SCc3ccccc3)nc3sc4c(c3c2=O)CCCC4)cc1
Homo sapiens
  Activity: inactive

## COc1ccc(-n2c(SCc3ccc(C)cc3)nc3sc4c(c3c2=O)CCCC4)cc1
Homo sapiens
  Activity: inactive

## CCc1cc2c(=O)n(-c3ccc(OC)cc3)c(SCC#N)nc2s1
Homo sapiens
  Activity: inactive

## Cc1ccc(-n2c(SCC#N)nc3sc(C)c(C)c3c2=O)cc1C
  Activity: 90.7%
Homo sapiens
  pEC50: 5.55

## CCCCCSc1nc2sc3c(c2c(=O)n1-c1ccc(OC)cc1)CCCC3
Homo sapiens
  Activity: inactive

## Cc1ccc(-n2c(SCC#N)nc3sc4c(c3c2=O)CC(C)CC4)cc1C (centres undefined)
  Activity: 38%
Homo sapiens
  pEC50: 4.78

## Cc1sc2nc(SCC#N)n(-c3ccc(F)cc3)c(=O)c2c1C
  Activity: 87.6%
Homo sapiens
  pEC50: 5.35

## COc1ccc(-n2c(SCC#N)nc3sc4c(c3c2=O)CCC4)cc1
  Activity: 100%
Homo sapiens
  pEC50: 6.35

## CCCc1sc2nc(SCC)n(-c3ccc(OC)cc3)c(=O)c2c1C
Homo sapiens
  Activity: inactive

## COc1ccc(-n2c(SCC#N)nc3c(c2=O)C2CCCCCC2S3)cc1 (centres undefined)
  Activity: 83%
Homo sapiens
  pEC50: 6.02

## C=CCSc1nc2sc3c(c2c(=O)n1-c1ccc(OC)cc1)CCCC3
Homo sapiens
  Activity: inactive

## CSc1nc2sc(C)c(C)c2c(=O)n1-c1ccc(F)cc1
  Activity: 69.2%
Homo sapiens
  pEC50: 5.59

## CCc1sc2nc(SCC#N)n(-c3ccc(F)cc3)c(=O)c2c1C
Homo sapiens
  Activity: inactive

## CCCc1sc2nc(SC)n(-c3ccc(OC)cc3)c(=O)c2c1C
Homo sapiens
  Activity: inactive

## COc1ccc(-n2c(SCC(C)=O)nc3sc4c(c3c2=O)CCCC4)cc1
Homo sapiens
  Activity: inactive

## COc1ccc(-n2c(SC(=O)c3ccccc3)nc3sc4c(c3c2=O)CCCC4)cc1
Homo sapiens
  Activity: inactive

## CCSc1nc2sc(C)c(C)c2c(=O)n1-c1ccc(OC)cc1
Homo sapiens
  Activity: inactive

## CCc1sc2nc(SC)n(-c3ccc(F)cc3)c(=O)c2c1C
Homo sapiens
  Activity: inactive

## N#CCSc1nc2sc3c(c2c(=O)n1-c1ccc2c(c1)OCCO2)CCCC3
  Activity: 100%
Homo sapiens
  pEC50: 6.66

## COc1ccc(-n2c(SCC#N)nc3sc4c(c3c2=O)CCC4)cc1OC
Homo sapiens
  Activity: inactive

## CCSc1nc2sc3c(c2c(=O)n1-c1ccc(OC)cc1)CCC3
Homo sapiens
  Activity: inactive

## CSc1nc2sc3c(c2c(=O)n1-c1ccc(C)c(C)c1)CC(C)CC3 (centres undefined)
Homo sapiens
  Activity: inactive

## N#CCSc1nc2sc3ccccc3c2c(=O)n1-c1ccc(F)cc1
Homo sapiens
  pEC50: 5.51

## CCCCSc1nc2sc3c(c2c(=O)n1-c1ccc(OC)cc1)CCCC3
Homo sapiens
  Activity: inactive

## N#CCSc1nc2sc3c(c2c(=O)n1-c1ccc(OC(F)(F)F)cc1)CCCCC3
Homo sapiens
  Activity: inactive

## N#CCSc1nc2sc3c(c2c(=O)n1-c1ccc(F)cc1)CCCC3
  Activity: 85.1%
Homo sapiens
  pEC50: 6.62

## C=CCSc1nc2sc3c(c2c(=O)n1-c1ccc(OC)cc1)CCC3
Homo sapiens
  Activity: inactive

## COc1ccc(-n2c(SCCC#N)nc3sc4c(c3c2=O)CCCC4)cc1
  Activity: 70%
Homo sapiens
  pEC50: 5.28

## N#CCSc1nc2sc3c(c2c(=O)n1-c1ccc(Br)cc1)CCCC3
Homo sapiens
  Activity: inactive

## C#CCSc1nc2sc(CC)c(C)c2c(=O)n1-c1ccc(OC)cc1
Homo sapiens
  Activity: inactive

## N#CCSc1nc2sc3c(c2c(=O)n1-c1cccc(Cl)c1)CCCC3
  Activity: 66.9%
Homo sapiens
  pEC50: 5.29

## COc1ccc(-n2c(SC)nc3sc4ccccc4c3c2=O)cc1
  Activity: 77%
Homo sapiens
  pEC50: 6.62

## N#CCSc1nc2sc3c(c2c(=O)n1-c1ccc(F)c(F)c1)CCCC3
Homo sapiens
  Activity: inactive

## Cc1sc2nc(SCC#N)n(-c3ccc4c(c3)OCO4)c(=O)c2c1C
  Activity: 100%
Homo sapiens
  pEC50: 5.78

## CCN1CCc2sc3nc(SC)n(-c4ccc(OC)cc4)c(=O)c3c2C1
Homo sapiens
  Activity: inactive

## COc1ccc(-n2c(SCC#N)nc3sc(C)cc3c2=O)cc1
Homo sapiens
  Activity: inactive

## C#CCSc1nc2sc(C)c(C)c2c(=O)n1-c1ccc(OC)cc1
  Activity: 90.3%
Homo sapiens
  pEC50: 5.31

## CCOc1ccc(-n2c(SC)nc3sc4ccccc4c3c2=O)cc1
Homo sapiens
  Activity: inactive

## CCCc1sc2nc(SCCO)n(-c3ccc(OC)cc3)c(=O)c2c1C
Homo sapiens
  Activity: inactive

## COc1ccc(-n2c(SCCO)nc3sc(C)c(C)c3c2=O)cc1
  Activity: 78%
Homo sapiens
  pEC50: 5.14

## COc1ccc(-n2c(SCC#N)nc3sc4c(c3c2=O)CCCC4)c(OC)c1
Homo sapiens
  Activity: inactive

## COc1cccc(-n2c(SCC#N)nc3sc4c(c3c2=O)CCCC4)c1
  Activity: 87.7%
Homo sapiens
  pEC50: 5.84

## COc1ccc(-n2c(SCC#N)nc3scc(C)c3c2=O)cc1
Homo sapiens
  Activity: inactive

## COc1ccc(-n2c(SCC#N)nc3sc4c(c3c2=O)CC(C)CC4)cc1 (centres undefined)
Homo sapiens
  Activity: inactive

## CSc1nc2sc3c(c2c(=O)n1-c1ccc(C)c(C)c1)CCC3
Homo sapiens
  Activity: inactive

## COc1ccc(-n2c(SCCO)nc3sc4c(c3c2=O)CCC4)cc1
  Activity: 100%
Homo sapiens
  pEC50: 5.15

## N#CCSc1nc2sc3c(c2c(=O)n1-c1ccccc1)CCC3
Homo sapiens
  Activity: inactive

## COc1ccc(-n2c(SCC#N)nc3sc4c(c3c2=O)CC(C)CC4)cc1OC (centres undefined)
Homo sapiens
  Activity: inactive

## Cc1ccc(-n2c(SCC#N)nc3sc4c(c3c2=O)CCC4)cc1C
Homo sapiens
  Activity: inactive

## COc1ccc(-n2c(SC)nc3sc4c(c3c2=O)CN(C(C)C)CC4)cc1
Homo sapiens
  Activity: inactive

## CCSc1nc2sc3c(c2c(=O)n1-c1ccccc1)CCCCC3
Homo sapiens
  Activity: inactive

## COc1ccc(-n2c(SC)nc3sc(C)c(C)c3c2=O)cc1
Homo sapiens
  Activity: inactive

## COc1ccc(-n2c(SC)nc3sc4c(c3c2=O)CCC4)cc1
  Activity: 97%
Homo sapiens
  pEC50: 6.62

## CCOc1ccc(-n2c(SC)nc3sc4c(c3c2=O)CCC4)cc1
Homo sapiens
  Activity: inactive

## CSc1nc2sc3c(c2c(=O)n1-c1ccc(OC(F)(F)F)cc1)CCCC3
Homo sapiens
  Activity: inactive

## COc1ccc(-n2c(SCC(C)=O)nc3sc4c(c3c2=O)CCC4)cc1
Homo sapiens
  Activity: inactive

## CSc1nc2sc3c(c2c(=O)n1-c1ccc(Cl)c(Cl)c1)CCCC3
Homo sapiens
  Activity: inactive

## CCSc1nc2sc(CC)c(C)c2c(=O)n1-c1ccc(OC)cc1
Homo sapiens
  Activity: inactive

## N#CCSc1nc2sc3c(c2c(=O)n1-c1ccc2c(c1)OCCO2)CCC3
  Activity: 100%
Homo sapiens
  pEC50: 6.60
